Values quoted from earlier work as cited in patent publication US7592342B2, “Quinoxaline derivatives as PI3 kinase inhibitors” (SmithKline Beecham Corporation, priority 2007, dated 2009).

Target: CK2 protein kinase (Homo sapiens, UniProt P68400)
Details: LY294002, literature

Chain of CK2 protein kinase (P68400 whole entry): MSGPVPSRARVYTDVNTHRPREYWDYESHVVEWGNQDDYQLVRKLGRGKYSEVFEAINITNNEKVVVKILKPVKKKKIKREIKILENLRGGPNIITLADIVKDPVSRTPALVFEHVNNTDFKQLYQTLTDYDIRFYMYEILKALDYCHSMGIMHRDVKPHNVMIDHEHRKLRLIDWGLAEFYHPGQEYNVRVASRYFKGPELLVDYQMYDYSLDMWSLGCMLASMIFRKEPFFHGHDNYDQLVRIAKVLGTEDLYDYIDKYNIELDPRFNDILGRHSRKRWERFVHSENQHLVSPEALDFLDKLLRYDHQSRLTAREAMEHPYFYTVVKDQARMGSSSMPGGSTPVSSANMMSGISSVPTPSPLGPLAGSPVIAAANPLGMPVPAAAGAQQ

O=c1cc(N2CCOCC2)oc2c(-c3ccccc3)cccc12 [LY294002]
IC50: 5 to 10 µM
